pIC50: −log10 of the molar value. Entries after “also recorded” stand apart in the source; their conditions may differ.
What was measured:
[1] = system: 28S rRNA and 18S rRNA (total RNA from HCT116 cells); experiment: Human rRNA interaction screening assay (agarose gel electrophoresis mobility shift); assay type: binding; details: 1 ug total RNA; 10 uM compound or 0.5 ug/mL PI, 15 min, room temperature
Experimental: RNA was isolated from HCT116 cells (RNeasy kit, QIAGEN) and contacted in vitro with each compound from a library of compounds. In representative assays, 1 ug of total RNA from HCT116 cells was incubated with 0.5 ug/mL of propidium iodide (PI), 10 uM compound A-1 or another compound in the library in a volume of 10 uL for 15 min at room temperature, followed by agarose gel electrophoresis. Fluorescence of the compounds was visualized on each gel. […] Compounds C-1, C-2, C-3, C-4 and C-5 have the following general formula: [drawing 15] [drawing 16]

[2] = molecular target: T1, nucleolin/8511NT (Homo sapiens, UniProt P19338); experiment: EMSA, interference with nucleolin/nucleic acid ligand interaction; assay type: binding; details: ligand 8511NT, read-out: IC50, concentration of Compound A-1 required to dissociate half of the complexed nucleic acid ligand and nucleolin protein
T1 construct: without the N-terminal acidic stretches domain
Experimental: (§1) The following assays assessed effects of compounds on interactions between nucleolin and nucleic acid ligands capable of forming quadruplex (QP) and hairpin (HP) secondary structures. Nucleic acid ligands tested were a cMyc QP DNA having nucleotide sequence 5′-[…]-3′ (SEQ ID NO: 176) and a HP pre-rRNA region to which nucleolin binds, having the sequence 5′-[…]-3′ (SEQ ID NO: 177). In the assays, recombinant nucleolin (˜250 nM), which was fused to maltose binding protein and had the sequence under accession number NM_005381 without the N-terminal acidic stretches domain, was incubated with each of the two ^32P-labeled nucleic acid ligands (10 or 250 nM). Nucleolin and the nucleic acid ligand were incubated in the presence or absence of a test compound of Formula A-1, B-1, C-6 or C-7 in an incubation buffer (12.5 mM Tris, pH 7.6, 60 mM KCl, 1 mM MgCl2, 0.1 mM EDTA, 1 mM DTT, 5% glycerol, 0.1 mg/ml BSA) for 30 minutes at room temperature. Structures for A-1 and B-1 are shown above and structures for C-6 and C-7 are shown hereafter: [drawing 17] The resulting complexes were separated on a 6% DNA retardation gel using 0.5× TBE with 20 mM KCl as a running buffer (i.e., electrophoresis mobility shift assay (EMSA)).
(§2) The assay also was conducted using nucleic acid ligands derived from human ribosomal DNA. Sequences of these nucleic acids are shown in the preceding example. […] A “+” represents the weakest nucleolin affinity and least interference by compound A-1 and a “++++” represents the strongest nucleolin affinity and greatest interference by compound A-1.
(§3) The assay also was conducted in a filter-binding format. […] The protein-quadruplex mixtures were incubated for 30 min at ambient temperature and filtered through mixed cellulose ester membrane filters (Millipore) with gentle suction. The filters were washed twice with […] of binding buffer, dried and OptiPhase ‘SuperMix’ scintillation cocktail (Perkin Elmer) was added to the wells. Radioactivity was assayed with MicroBeta scintillation counter (Perkin Elmer). Binding curves were constructed and apparent Kd's and Bmax's for the complexes were calculated using the GraphPad Prizm software program (GraphPad Software). In the following table, the nucleic acid ligand is designated in the first column using the nomenclature described herein; the second column provides the nucleotide sequence of the nucleic acid ligand; the third column is the conformation of the ligand as determined by circular dichroism (M is mixed, P is parallel, A is antiparallel, C is complex, SS is single-stranded and ND is not determined); the fourth column is the dissociation constant determined by the filter binding assay of nucleolin protein and the nucleic acid ligand; the fifth column is a Bmax constant determined by the filter binding assay, which is the percent of active nucleic acid ligand in each assay; and the sixth column presents the concentration of Compound A-1 required to dissociate half of the complexed nucleic acid ligand and nucleolin protein, as determined by the EMSA assay described above.

[3] = molecular target: T2, nucleolin/5701NT (Homo sapiens, UniProt P19338); experiment: as above; assay type: binding; details: ligand 5701NT, read-out: IC50, concentration of Compound A-1 required to dissociate half of the complexed nucleic acid ligand and nucleolin protein
T2 construct: without the N-terminal acidic stretches domain
Experimental: as §1, §2, §3

[4] = molecular target: T3, nucleolin/2957NT (Homo sapiens, UniProt P19338); experiment: as above; assay type: binding; details: ligand 2957NT, read-out: IC50, concentration of Compound A-1 required to dissociate half of the complexed nucleic acid ligand and nucleolin protein
T3 construct: without the N-terminal acidic stretches domain
Experimental: as §1, §2, §3

[5] = molecular target: T4, nucleolin/6960NT (Homo sapiens, UniProt P19338); experiment: as above; assay type: binding; details: ligand 6960NT, read-out: IC50, concentration of Compound A-1 required to dissociate half of the complexed nucleic acid ligand and nucleolin protein
T4 construct: without the N-terminal acidic stretches domain
Experimental: as §1, §2, §3

[6] = molecular target: T5, nucleolin/6534NT (Homo sapiens, UniProt P19338); experiment: as above; assay type: binding; details: ligand 6534NT, read-out: IC50, concentration of Compound A-1 required to dissociate half of the complexed nucleic acid ligand and nucleolin protein
T5 construct: without the N-terminal acidic stretches domain
Experimental: as §1, §2, §3

[7] = system: nucleolin in A549 cells; experiment: Cell nucleolin localization (immunofluorescence); assay type: cell-based; details: 10 uM, two hours
Experimental: An assay was conducted to determine the effect of ribosomal nucleic acid interacting compounds on cell nucleolin location. In these studies, A549 cells were plated in borosilicate chamber slides. The cells were treated with 10 uM compound A-1 the next day for two hours, washed with phosphate buffered saline, fixed for 10 minutes in 4% paraformaldehyde, permeabilized for 5 minutes in a 1:1 ethanol:acetone mix, incubated with a 1:100 dilution of an anti-nucleolin monoclonal antibody (catalog no. RDI-NUCLEOLabm; Research Diagnostics, Inc.) in 5% donkey serum, followed by incubation with a 1:100 diluted TRITC-labeled secondary anti-mouse antibody and observed under a fluorescence microscope (e.g., Olympus) in the TRITC channel at 600× magnification. […] Accordingly, nucleolin was redistributed from the nucleolus to the nucleoplasm in cells treated with a compound tested in the assay.

[8] = system: other kinases; experiment: Protein kinase inhibition assays (panel, summary); assay type: biochemical; details: 2.5 μM
Experimental: Certain compounds were tested for activity in protein kinase inhibition assays. All substrates were dissolved and diluted to working stocks in de-ionized water, apart from histone H1 (10× working stock in 20 mM MOPS pH 7.0), PDKtide (10× working stock in 50 mM Tris pH 7.0) ATF2 (which is typically stored at a 20× working stock in 50 mM Tris pH 7.5, 150 mM NaCl, 0.1 mM EGTA, 0.03% Brij-35, 50% glycerol, 1 mM benzamidine, 0.2 mM PMSF and 0.1% R-mercaptoethanol), KKLNRTLSFAEPG (SEQ ID NO:203) and RRRLSFAEPG (SEQ ID NO:204) (50 mM HEPES pH 7.4) and GGEEEEYFELVKKKK (SEQ ID NO:205) (20 mM MOPS pH 7.0). All kinases were pre-diluted to a 10× working concentration prior to addition into the assay. The composition of the dilution buffer for each kinase is detailed below.
The following table denotes percent residual activity of each protein kinase when incubated with compound A-1 or B-1.

T4 sequence (P19338 284-710 limits assumed): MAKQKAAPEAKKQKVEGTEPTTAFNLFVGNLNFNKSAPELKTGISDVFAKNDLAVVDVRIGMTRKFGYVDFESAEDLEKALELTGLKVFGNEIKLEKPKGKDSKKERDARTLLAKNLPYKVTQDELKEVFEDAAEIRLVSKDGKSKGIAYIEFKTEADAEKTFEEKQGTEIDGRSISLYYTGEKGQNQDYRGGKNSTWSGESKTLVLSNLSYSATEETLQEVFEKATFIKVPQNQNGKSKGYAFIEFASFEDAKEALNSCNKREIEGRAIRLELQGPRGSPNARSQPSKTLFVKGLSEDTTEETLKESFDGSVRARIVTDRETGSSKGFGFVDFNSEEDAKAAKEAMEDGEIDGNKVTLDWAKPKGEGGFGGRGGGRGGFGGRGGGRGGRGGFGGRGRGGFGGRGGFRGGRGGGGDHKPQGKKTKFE
T2 sequence (P19338 284-710 limits assumed): as above
T1 sequence (P19338 284-710 limits assumed): as above
T3 sequence (P19338 284-710 limits assumed): as above
T5 sequence (P19338 284-710 limits assumed): as above

CN1CCCC1CCNC(=O)c1cn2c3c(c(N4CCC(c5cnccn5)C4)c(F)cc3c1=O)Oc1cc3ccccc3cc1-2 (centres unmarked) [Compound A-1]
binding to 28S versus 18S rRNA [1]: bound preferentially to 28S rRNA; also recorded: selective binding to 28S over 18S | pIC50 [2]: 5.00 | pIC50 [3]: 5.52 | pIC50 [4]: 6.00 | pIC50 [5]: 5.52 | pIC50 [6]: 5.00 | nucleolin localization in treated cells [7]: nucleolin was redistributed to the nucleoplasm | inhibition of other kinases [8]: 60-80%
